Here are results for four compounds from paper PMC12408761, “Impact of physical activity on ethoxy- and propoxypropanol human toxicokinetics in vivo” (Archives of Toxicology, 2025).

Where two headings read alike, the source gives them in different places.

On the set-up of data set [1]: method as in Groeseneken et al. [1986], [1987]. The conditions noted are these: humans; ref Groeseneken et al. [1986], [1987]; cited from earlier work.
The nature of data set [2]: Controlled human inhalation exposure (4 h in exposure chamber, at rest or with moderate physical activity): toxicokinetics in blood, urine and exhaled breath. It is filed as in vivo. As to conditions: for Time at which Cmax was reached (Tmax): time after start of exposure; for average Cmax in exhaled breath: for a same concentration of exposure; for Time at which Cmax was reached: urine and exhaled breath; for Increase of urinary absorption rate with physical activity versus rest: first 2 h of exposure. The procedure: All exposure sessions were performed under controlled conditions at the Department of Occupational and Environmental Health, Center for Primary Care and Public Health (Unisanté), University of Lausanne, in Switzerland. PGEE or PGPE air concentrations were generated in a 12 m^3 exposure chamber (Guillemin [1975]) and monitored electronically (Lab VIEW software, National Instruments Corporation, Texas, USA) with a portable infrared spectroscopy gas analyzer for ambient air analysis (GASMET™ analyzer DX-4040 Gasmet Oy, Helsinki technologies, Finland) (Devanthery et al. [2003]; Tomicic et al. [2011]). During each exposure session, the participant spent 4 h inside the exposure chamber, and then 2 h outside in a solvent-free area. Each participant took part in four different exposure sessions comprising four different experimental conditions. Three sessions were performed at rest at either 25, 30, and 35 ppm of PGEE or 15, 20, and 25 ppm of PGPE. The fourth session was performed with moderate physical activity at 35 ppm of PGEE or 25 ppm of PGPE (Fig. 1).
The air concentrations were below the existing OEL for PGEE, i.e., 50 ppm. Given the absence of an OEL for PGPE, the chosen concentrations were previously tested to ensure odor tolerance for participants. The participants performed the physical activity at 1.5 W/kg on an ergonomic bicycle (Corival, Lode B.V., Groningen, The Netherlands) for 30 min twice during the same exposure session: the first without solvent exposure and the second with PGEE or PGPE. The physical activity design was adapted after discussion with sports science researchers from the University of Lausanne. A minimum of 48 h between two exposure sessions was determined to avoid possible cumulative exposure (Borgatta et al. [2022]). Blood, urine, and exhaled breath samples were collected before, during, and after all exposure sessions. The timing of sample collection was based on previous studies and protocol testing.
The blood samples were collected with an intravenous catheter inserted in the participant’s forearm by a research nurse into glass tubes (Vacutainers® NH Heparine Sodium, Becton Dickinson AG, Basel, Switzerland). A first blood sample was collected before the exposure session in a solvent-free area and used as baseline value. The timing following the first blood sample was 30, 120, 180, 240, 255, 300, and 360 min after the exposure to PGE started. The last blood sample was collected 24 h post-exposure. The blood samples were kept in the dark at 4 °C until analysis.
The participants were asked to provide a urine sample before the exposure session (solvent-free area, baseline) and then, every 2 h over 6 h. The participants continued to collect their urine (ad lib) samples at home for additional 24 h and bring them back in a cooler with cooling elements the day after the exposure session. They provided urine collection date, time, and total urinary volume. All urine samples were stored in polypropylene cups in the dark at 4 °C (Borgatta et al. [2021]). The cold storage is important to avoid any loss of substance as glycol ethers are volatile organic compounds.
The exhaled breath samples were collected using a non-invasive simple-to-use device for biological exposure monitoring of volatile organic compounds (BioVOC-2 Breath Sampler, Brechbühler, Schlieren, Switzerland). The last portion of expired breath (129 mL) was collected on thermal desorption (TD) tubes (Tenax® TA, Camsco, Böckten, Switzerland) from each participant. A first exhaled breath sample was collected before the exposure session in a solvent-free area (baseline). The timing following the first exhaled breath sample was 120, 240, 255, 260, 265, 270, 275 and 360 min after exposure had started and a last one 24 h post exposure. Exhaled breath samples were analyzed immediately after collection. […]

Where [3] appears, read: blood, at rest, 4 h inhalation, geometric mean ± SD.
[4] abbreviates: blood, physical activity, 35 ppm PGEE or 25 ppm PGPE, geometric mean ± SD.
Setting [5] is: human, inhaled or intranasal, blood, at rest, 4 h inhalation (PGEE 25-35 ppm, PGPE 15-25 ppm), geometric mean ± SD.
Where [6] appears, read: human, inhaled or intranasal, blood, at rest, 4 h inhalation, geometric mean ± SD, read-out: Cmax.
The mark [7] stands for this setting: human, inhaled or intranasal, urine, at rest, 4 h inhalation (PGEE 25-35 ppm, PGPE 15-25 ppm), geometric mean ± SD.
Where [8] appears, read: human, inhaled or intranasal, urine, at rest, 4 h inhalation, geometric mean ± SD, read-out: Cmax.
Where [9] appears, read: human, inhaled, blood, at rest, for a same concentration of exposure (25 ppm), read-out: average Cmax in blood.
Where [10] appears, read: human, inhaled, blood, at rest, read-out: half-life in blood.
[11] abbreviates: human, inhaled, blood, physical activity (30 min, 1.5 W/kg), 35 ppm PGEE or 25 ppm PGPE, geometric mean ± SD.
[12] abbreviates: human, inhaled, blood, physical activity, 35 ppm PGEE or 25 ppm PGPE, geometric mean ± SD, read-out: Cmax.
Setting [13] is: human, inhaled, exhaled breath, all exposure conditions, read-out: Half-life (converted).
The mark [14] stands for this setting: human, inhaled, urine, physical activity (30 min, 1.5 W/kg), 35 ppm PGEE or 25 ppm PGPE, geometric mean ± SD.
The mark [15] stands for this setting: human, inhaled, urine, physical activity, 35 ppm PGEE or 25 ppm PGPE, geometric mean ± SD, read-out: Cmax.
Where [16] appears, read: urine, at rest, 4 h inhalation, geometric mean ± SD.
The mark [17] stands for this setting: urine, physical activity, 35 ppm PGEE or 25 ppm PGPE, geometric mean ± SD.

Regarding `CCOCCO` [EGEE, ethylene glycol ethyl ether], the “exhalation as share of the total uptake” value in data set [1] is listed as “less than 0.4%”.
For the compound `CCOCCOC(C)=O` [EGEEAc], the “exhalation as share of the total uptake” value in data set [1] is recorded as “less than 0.4%”.
With `CCOCC(C)O` (centres unmarked) [PGEE, propylene glycol ethyl ether], the “Absorption (absorption rate)” value in data set [2] (setting [3]) was found to be 0.013 ± 0 µg/mL/h*ppm; in data set [2] (setting [4]), 0.038 ± 0.004 µg/mL/h*ppm; in data set [2] (setting [16]), 0.010 ± 0.002 µg/mL/h*ppm; in data set [2] (setting [17]), 0.014 ± 0.003 µg/mL/h*ppm. In addition, the “Time at which Cmax was reached (Tmax)” value in data set [2] (blood, at rest) stood at 240 min. Also, the “Blood concentration following PGEE exposure compared to PGPE” value in data set [2] (blood, same concentration of exposure (25 ppm)) was 1.3 fold. Also, the “Share of total blood uptake quantified in exhaled breath (AUC exhaled breath / AUC blood)” value in data set [2] (exhaled breath) is on record as “less than 0.5%”. Further, in data set [2] (exhaled breath, at rest), the “average Cmax in exhaled breath” value amounted to 2.81 ± 0.76 ppm. Also, the AUC is 7320 ng·h/mL in data set [2] (setting [5]), 5050 ng·h/mL in data set [2] (setting [7]), 16600 ng·h/mL in data set [2] (setting [11]) and 8820 ng·h/mL in data set [2] (setting [14]). Also, the maximum concentration (Cmax) was 1070 ± 300 ng/mL in data set [2] (setting [6]); 1070 ± 210 ng/mL in data set [2] (setting [8]); 810 ± 80 ng/mL in data set [2] (setting [9]); 2760 ± 260 ng/mL in data set [2] (setting [12]); 1810 ± 470 ng/mL in data set [2] (setting [15]). In addition, the half-life in data set [2] (setting [10]) is 60 min; in data set [2] (setting [13]), 2.88 min; in data set [2] (human, inhaled, urine, all exposure conditions, read-out: Half-life (converted)), 78 min. In addition, the “Time at which Cmax was reached” value in data set [2] (all conditions) is on record as “at the end of exposure”. For the same compound, in data set [2] (urine), the “Increase of urinary absorption rate with physical activity versus rest” value is on record as 1.5 times.
In the case of `CCCOCC(C)O` (centres unmarked) [PGPE, propylene glycol propyl ether], the “Absorption (absorption rate)” value in data set [2] (setting [3]) was 0.011 ± 0 µg/mL/h*ppm; in data set [2] (setting [4]), 0.024 ± 0.002 µg/mL/h*ppm; in data set [2] (setting [16]), 0.007 ± 0.0017 µg/mL/h*ppm; in data set [2] (setting [17]), 0.0087 ± 0.0008 µg/mL/h*ppm. Further, the “Time at which Cmax was reached (Tmax)” value in data set [2] (blood, at rest) is given as 180 min. In addition, the “Share of total blood uptake quantified in exhaled breath (AUC exhaled breath / AUC blood)” value in data set [2] (exhaled breath) is 1.1%. Also, in data set [2] (exhaled breath, at rest), the “average Cmax in exhaled breath” value was determined as 2.25 ± 0.66 ppm. In addition, the exposure (AUC) was 2650 ng·h/mL in data set [2] (setting [5]), 1910 ng·h/mL in data set [2] (setting [7]), 5130 ng·h/mL in data set [2] (setting [11]) and 3090 ng·h/mL in data set [2] (setting [14]). For the same compound, the highest concentration (Cmax) in data set [2] (setting [6]) was 500 ± 130 ng/mL; in data set [2] (setting [8]) it was 450 ± 110 ng/mL; in data set [2] (setting [9]), 650 ± 90 ng/mL; in data set [2] (setting [12]) it was 1230 ± 90 ng/mL; in data set [2] (setting [15]), 710 ± 140 ng/mL. Further, the half-life in data set [2] (setting [10]) was 54 min; in data set [2] (setting [13]), 2.28 min; in data set [2] (human, inhaled, urine, all conditions, read-out: urinary half-life) it was 54 min; in data set [2] (urine, all exposure conditions), 54 min. Further, in data set [2] (urine), the “Share of total blood uptake quantified in urine (AUC urine / AUC blood)” value is 69.5%. Besides, the “Time at which Cmax was reached” value in data set [2] (all conditions) was “at the end of exposure”. In addition, the “Increase of urinary absorption rate with physical activity versus rest” value in data set [2] (urine) is listed as “did not differ significantly”.

The AUC is concentration integrated over time. A low value points to low exposure. The Cmax is the maximum level reached in the sampled fluid or tissue. One may read the half-life as how long it takes for the measured level to halve.
